The target in data set [1] is T1, Human plasma kallikrein (Homo sapiens (Human), UniProt P03952). The experiment in a line: Determination of the IC50 for plasma kallikrein. As to conditions: 25° C., substrate H-DPro-Phe-Arg-AFC; read-out: IC50 (human PKal). Format: biochemical. As for the experimental part:
Human plasma kallikrein (Protogen) was incubated at 25° C. with the fluorogenic substrate H-DPro-Phe-Arg-AFC and various concentrations of the test compound. Residual enzyme activity (initial rate of reaction) was determined by measuring the change in […] at 410 nm and the IC50 value for the test compound was determined.

Data set [2] concerns the target T1, Human plasma kallikrein. The experiment in a line: Determination of the Ki for plasma kallikrein (mixed-model inhibition). The note with it: for Ki: human plasma kallikrein, mixed-model inhibition equation. Format: biochemical.
The next data set concerns the target Human KLK1 (Homo sapiens (Human), UniProt P06870). Kind of data set: Determination of the IC50 for KLK1. The note with it: 25° C., substrate H-DVal-Leu-Arg-AFC. Format: biochemical. As for the experimental part:
Human KLK1 (Callbiochem) was incubated at 25° C. with the fluorogenic substrate H-DVal-Leu-Arg-AFC and various concentrations of the test compound. Residual enzyme activity (initial rate of reaction) was determined by measuring the change in […] at 410 nm and the IC50 value for the test compound was determined.

For the next data set, the target named is Human FXIa (Homo sapiens (Human), UniProt P03951). The experiment in a line: Determination of the % inhibition / IC50 for FXIa. As to conditions: for inhibition at 40 µM: 40 μM test compound, read-out: % Inhibition @ 40 μM (human FXIa); for IC50: 25° C., substrate Z-Gly-Pro-Arg-AFC. Format: biochemical. As for the experimental part:
FXIa inhibitory activity in vitro was determined using standard published methods (see e.g. Johansen et al., Int. J. Tiss. Reac. 1986, 8, 185; Shori et al., Biochem. Pharmacol., 1992, 43, 1209; Sturzebecher et al., Biol. Chem. Hoppe-Seyler, 1992, 373, 1025). […]

Another data set concerns the target Human Factor XIIa (Homo sapiens (Human), UniProt P00748). Kind of data set: Factor XIIa inhibitory activity in vitro. Format: biochemical. The note with it: 25° C., substrate H-DPro-Phe-Arg-AFC; read-out: IC50 (human FXIIa). As for the experimental part: Human Factor XIIa (Enzyme Research Laboratories) was incubated at 25° C. with the fluorogenic substrate H-DPro-Phe-Arg-AFC and various concentrations of the test compound. Residual enzyme activity (initial rate of reaction) was determined by measuring the change in […] at 410 nm and the IC50 value for the test compound was determined.

A further data set addresses thrombin (Homo sapiens (Human), UniProt P00734). Kind of data set: Determination of enzyme selectivity: thrombin. Format: biochemical. The note with it: substrate at Km concentration.
The next data set deals with trypsin. Kind of data set: Determination of enzyme selectivity: trypsin. Format: biochemical, human. The note with it: substrate at Km concentration.
Data set [3] is described as follows: Intrinsic clearance in human liver microsomes. Format: in vitro ADME. The note with it: human liver microsomes 0.5 mg/mL, 5 μM test compound, 37° C.; read-out: Human liver microsome (Clint μL/min/mg protein). As for the experimental part: (§1) Rat or human liver microsomes (0.5 mg/mL; Corning) were incubated with 5 μM test compound at 37° C. on a shaking platform (150 rpm). Samples were taken at 0, 6, 12, 18, 24 and 60 min and test compound concentrations were determined by LCMS against a calibration curve.

Data set [4] is described as follows: Intrinsic clearance in rat liver microsomes. Format: in vitro ADME. As to conditions: rat liver microsomes 0.5 mg/mL, 5 μM test compound, 37° C.; read-out: rat liver microsome (Clint μL/min/mg protein). As for the experimental part:
as §1

Data set [5] in a line: Plasma protein binding (PPB), rapid equilibrium dialysis, human plasma. Format: in vitro ADME. As to conditions: 5 μM test compound, dialysis 5 hrs at 37° C. (In equilibrium dialysis only unbound substance equilibrates across the membrane.)
The nature of data set [6]: Plasma protein binding (PPB), rapid equilibrium dialysis, rat plasma. Format: in vitro ADME. The note with it: 5 μM test compound, dialysis 5 hrs at 37° C.
A short description of data set [7]: Predicted plasma clearance (Clp), well-stirred model, rat. Format: in vitro ADME. As to conditions: percentage of hepatic blood flow.
Data set [8] can be described thus: Pharmacokinetics following a single oral dose in male Sprague-Dawley rats. Format: in vivo. As to conditions: rat, single po dose (nominal 10 mg/kg; actual dose per row in column Dose po), 10% DMSO/10% cremophor/80% SWFI, plasma.

Results on two molecules are retold here after patent US11180484B2, “Pyrazole derivatives as plasma kallikrein inhibitors” (KALVISTA PHARMACEUTICALS LIMITED, priority 2016, dated 2021).

“And” between values parts separate entries of the source, which are not always exact repeats. Equal values may be shown once.

Human FXIa, sequence (P03951 388-625): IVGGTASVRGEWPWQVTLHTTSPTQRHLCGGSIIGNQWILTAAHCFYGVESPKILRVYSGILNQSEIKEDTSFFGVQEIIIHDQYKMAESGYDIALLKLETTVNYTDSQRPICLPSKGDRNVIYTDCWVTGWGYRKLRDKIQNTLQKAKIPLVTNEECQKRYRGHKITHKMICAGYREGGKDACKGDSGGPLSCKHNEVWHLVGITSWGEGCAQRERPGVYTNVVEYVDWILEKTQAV
Human FXIa, sequence (P03951 19-387): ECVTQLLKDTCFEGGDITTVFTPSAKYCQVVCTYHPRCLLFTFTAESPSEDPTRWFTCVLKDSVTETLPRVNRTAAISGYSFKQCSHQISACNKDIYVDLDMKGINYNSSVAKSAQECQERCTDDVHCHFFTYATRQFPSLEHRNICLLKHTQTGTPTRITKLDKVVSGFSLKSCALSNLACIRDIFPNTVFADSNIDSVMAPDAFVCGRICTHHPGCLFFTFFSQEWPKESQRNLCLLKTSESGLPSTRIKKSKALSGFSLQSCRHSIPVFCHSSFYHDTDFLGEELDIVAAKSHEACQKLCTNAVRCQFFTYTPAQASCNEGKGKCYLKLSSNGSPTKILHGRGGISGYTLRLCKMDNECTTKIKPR
T1 sequence (P03952 391-638): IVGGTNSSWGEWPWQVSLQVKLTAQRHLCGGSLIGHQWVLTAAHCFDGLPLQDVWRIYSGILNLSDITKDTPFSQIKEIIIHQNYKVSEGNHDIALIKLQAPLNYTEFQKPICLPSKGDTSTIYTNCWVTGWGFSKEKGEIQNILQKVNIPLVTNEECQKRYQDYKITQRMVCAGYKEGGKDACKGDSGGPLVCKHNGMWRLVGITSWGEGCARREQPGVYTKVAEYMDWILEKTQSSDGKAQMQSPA
T1 sequence (P03952 20-390): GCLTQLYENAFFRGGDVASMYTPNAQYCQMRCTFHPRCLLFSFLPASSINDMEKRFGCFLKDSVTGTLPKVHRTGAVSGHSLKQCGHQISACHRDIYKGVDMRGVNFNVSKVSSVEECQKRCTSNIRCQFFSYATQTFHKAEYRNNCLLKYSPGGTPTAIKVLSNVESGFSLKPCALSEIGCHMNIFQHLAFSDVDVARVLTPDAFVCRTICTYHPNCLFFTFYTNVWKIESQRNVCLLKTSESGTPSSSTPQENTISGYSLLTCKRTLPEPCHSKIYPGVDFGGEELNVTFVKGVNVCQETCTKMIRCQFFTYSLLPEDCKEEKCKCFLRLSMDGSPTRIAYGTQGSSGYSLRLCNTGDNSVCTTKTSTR
Human KLK1, sequence (P06870 25-262): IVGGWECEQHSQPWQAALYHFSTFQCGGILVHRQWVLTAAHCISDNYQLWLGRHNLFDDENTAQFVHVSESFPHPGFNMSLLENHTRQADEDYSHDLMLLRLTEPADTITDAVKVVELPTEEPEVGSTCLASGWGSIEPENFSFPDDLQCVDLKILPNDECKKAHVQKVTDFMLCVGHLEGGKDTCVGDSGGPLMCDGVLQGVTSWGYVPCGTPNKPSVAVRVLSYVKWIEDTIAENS
Human Factor XIIa, sequence (P00748 373-615): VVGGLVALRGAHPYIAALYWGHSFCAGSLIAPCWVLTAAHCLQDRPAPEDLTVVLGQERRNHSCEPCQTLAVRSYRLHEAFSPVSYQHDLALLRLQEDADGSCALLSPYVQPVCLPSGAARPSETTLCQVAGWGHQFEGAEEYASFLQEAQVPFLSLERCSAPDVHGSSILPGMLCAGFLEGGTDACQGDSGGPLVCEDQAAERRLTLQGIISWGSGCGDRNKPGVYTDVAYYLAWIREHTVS
Description for thrombin: (§2) Human serine protease enzymes plasmin, thrombin and trypsin were assayed for enzymatic activity using an appropriate fluorogenic substrate. Protease activity was measured by monitoring the accumulation of liberated fluorescence from the substrate over 5 minutes. The linear rate of fluorescence increase per minute was expressed as percentage (%) activity. The Km for the cleavage of each substrate was determined by standard transformation of the Michaelis-Menten equation.
Description for trypsin: as §2

The term IC50 denotes the concentration needed to halve the response being measured. What is called Ki is a measure of affinity in units of concentration, obtained from inhibition or displacement. As a reminder, the inhibition is the drop in the measured response relative to a control, in per cent. The fraction unbound is free concentration divided by total concentration. Read a low fraction unbound as little free substance. One may read the Cmax as the highest concentration seen after dosing. One may read the Tmax as the time at which the peak concentration occurs. With `COCc1nn(Cc2ccc(Cn3ccccc3=O)cc2)cc1C(=O)NCc1c(-n2cnnn2)ccc(OC)c1F` [Example 39, N-{[2-Fluoro-3-methoxy-6-(1,2,3,4-tetrazol-1-yl)phenyl]methyl}-3-(methoxymethyl)-1-({4-[(2-oxopyridin-1-yl)methyl]phenyl}methyl)pyrazole-4-carboxamide], the IC50 at Human plasma kallikrein [1] is 0.6 nM; at Human KLK1, more than 4000 nM; against Human FXIa, 3700 nM; on Human Factor XIIa it was more than 4000 nM; against thrombin it was 19300 nM; on trypsin, more than 40000 nM. Moreover, on Human plasma kallikrein [2], the inhibitory constant (Ki) was determined as 0.26 nM. Moreover, the Alpha at Human plasma kallikrein [2] (parameter of the mixed-model equation indicating mechanism of inhibition) turned out to be 1.7. Also, at Human FXIa, the inhibition at 40 µM was determined as 91%. Besides, the results for the microsomal CLint at 5 μM in [3] and in [4] were 29 µL/min/mg and 19 µL/min/mg, respectively. For the same molecule, the fraction unbound at 5 h, 5 μM was 0.22 in data set [5] and 0.11 in [6]. The “Predicted in vivo rat Clp (% LBF)” value in data set [7] is listed as 5 % LBF. Further, the Cmax in data set [8] amounted to 187 ng/mL. Also, the Tmax in [8] was 30 min.

Regarding `COCc1nn(Cc2cnc(N3CCCC3)nc2)cc1C(=O)NCc1c(-n2cnnn2)ccc(OC)c1F` [Example 79, N-{[2-Fluoro-3-methoxy-6-(1,2,3,4-tetrazol-1-yl)phenyl]methyl}-3-(methoxymethyl)-1-{[2-(pyrrolidin-1-yl)pyrimidin-5-yl]methyl}pyrazole-4-carboxamide], the IC50 is 1.5 nM at Human plasma kallikrein [1]; more than 40000 nM on Human KLK1; 127 nM at Human FXIa; more than 40000 nM on Human Factor XIIa; 7310 nM against thrombin; more than 40000 nM at trypsin. Also, the Ki on Human plasma kallikrein [2] was 0.38 nM and 0.23 nM. In addition, on Human FXIa, the inhibition at 40 µM worked out at 96%. For the same molecule, the microsomal CLint at 5 μM in [3] worked out at 4 µL/min/mg; in data set [4] it was 23 µL/min/mg. The values for the fraction unbound at 5 h, 5 μM in [5] and in [6] were 0.09 and 0.05, respectively. Moreover, the “Predicted in vivo rat Clp (% LBF)” value in [7] is listed as 3 % LBF. The same molecule showed a Cmax in [8] of 807 ng/mL. The Tmax in data set [8] is 45 min.
